Measurements as given in PubChem BioAssay (NCI).
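Where inhibition never reached the appropriate level, the endpoint shown equals the highest concentration tested. Otherwise, values were interpolated linearly from a five-concentration, 48-hour dose response in 96-well plates. TGI is the concentration that stops growth completely.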

How the values were obtained:
Assay in all cases: NCI-60 cell line screen, 48 h
BT-549 breast = tested on: BT-549 breast
HOP-62 NSCLC = tested on: HOP-62 NSCLC
IGROV1 ovarian = tested on: IGROV1 ovarian
KM12 colon = tested on: KM12 colon
MDA-MB-435 = tested on: MDA-MB-435
OVCAR-4 ovarian = tested on: OVCAR-4 ovarian
PC-3 prostate = tested on: PC-3 prostate
RXF 393 renal = tested on: RXF 393 renal
SN12C renal = tested on: SN12C renal
SR leukemia = tested on: SR leukemia
TK-10 renal = tested on: TK-10 renal

Measured: TGI

CSCCCNC(=O)c1csc([C@@H](CSC)NC(=O)CCNC(=O)[C@@H](NC(=O)OCC(Br)(Br)Br)C(C)O)n1 (stereo partly specified)
> 100 µM: all assays above
